Source: PMC9583330, “Quinazoline-4(3H)-one-7-carboxamide Derivatives as Human Soluble Epoxide Hydrolase Inhibitors with Developable 5-Lipoxygenase Activating Protein Inhibition” (ACS Omega, 2022)
Where “and” joins values, the source holds several entries; their conditions need not be identical. Equal entries are not always repeated.

How the values were obtained:
[1] = tested on: FLAP-mediated cellular LT formation in human neutrophils; test: FLAP-dependent 5-LO product formation in intact neutrophils; type: cell-based; settings: Neutrophil; for IC50: Homo sapiens, intact neutrophils challenged with 2.5 μM ionophore plus 20 μM arachidonic acid; for activity at 10 µM: 10 μM inhibitor, read-out: 5-LO product formation in neutrophils, remaining activity (% of control) at 10 μM; for activity at 10 µM / activity at 1 µM: human neutrophils, 2.5 μM Ca2+-ionophore A23187, means ± SEM, n = 4–5; for activity at 1 µM: 1 μM inhibitor, read-out: 5-LO product formation in neutrophils, remaining activity (% of control) at 1 μM
Protocol: Neutrophils were isolated from leukocyte concentrates obtained from freshly withdrawn peripheral blood of healthy adult male and female donors which were provided by the Institute of Transfusion Medicine, University Hospital Jena, Germany. The experimental protocol was approved by the ethical committee of the University Hospital Jena, and all methods were performed in accordance with the relevant guidelines and regulations. The leukocyte concentrates were mixed with dextran (from Leuconostoc spp. MW ∼40,000, Sigma Aldrich) for sedimentation of erythrocytes, and the supernatant was centrifuged on lymphocyte separation medium (Histopaque-1077, Sigma Aldrich). Contaminating erythrocytes in the pelleted neutrophils were removed by hypotonic lysis using distilled water. The neutrophils were washed twice in ice-cold PBS pH 7.4 and finally resuspended in PBS pH 7.4 plus 1 mg/mL glucose (PGC buffer).
Human neutrophils [5 × 10^6; in PGC buffer; incubation volume, 1 mL] were preincubated with 0.1% DMSO (vehicle) or with the compounds at 37 °C for 15 min. […] Samples were then subjected to solid-phase extraction on C18-columns (100 mg, UCT, Bristol, PA), and 5-LO products (LTB4 and its trans-isomers, and 5-H(p)ETE) were extracted and analyzed in the presence of internal standard PGB1 by RP-HPLC and UV detection as reported elsewhere.[45]

[2] = molecular target: T1, Human recombinant sEH (Homo sapiens, UniProt P34913); test: sEH cell-free fluorescence-based assay (PHOME substrate); type: biochemical; settings: means ± SEM, n = 3; for IC50: cell-free assay, human sEH; for remaining activity at 10 µM: residual activity at 10 μM, control = vehicle 100%
T1 construct: made in house; host or cells: Sf9 insect cells, recombinant baculovirus from Dr. B. Hammock
T1 sequence (P34913 1-555): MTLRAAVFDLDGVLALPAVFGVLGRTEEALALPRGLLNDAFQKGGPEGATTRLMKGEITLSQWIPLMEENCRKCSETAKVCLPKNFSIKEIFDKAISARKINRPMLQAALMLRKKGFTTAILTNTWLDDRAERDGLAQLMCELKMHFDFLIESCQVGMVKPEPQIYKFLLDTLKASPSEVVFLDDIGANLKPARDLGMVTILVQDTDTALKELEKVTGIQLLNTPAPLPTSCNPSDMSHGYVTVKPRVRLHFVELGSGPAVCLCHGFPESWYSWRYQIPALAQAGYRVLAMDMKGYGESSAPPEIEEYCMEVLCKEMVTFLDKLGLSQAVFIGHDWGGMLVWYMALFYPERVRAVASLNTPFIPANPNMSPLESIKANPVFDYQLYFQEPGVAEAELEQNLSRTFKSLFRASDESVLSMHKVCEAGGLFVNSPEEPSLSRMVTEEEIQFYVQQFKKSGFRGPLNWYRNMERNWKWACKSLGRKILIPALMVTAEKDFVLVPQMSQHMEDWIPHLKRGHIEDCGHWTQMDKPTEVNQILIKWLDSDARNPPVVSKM
Protocol: Human recombinant sEH was expressed and purified as reported before.[46] In brief, Sf9 cells were infected with a recombinant baculovirus (kindly provided by Dr. B. Hammock, University of California, Davis, CA). Seventy-two hours post-transfection, cells were pelleted and sonicated (3 × 10 s at 4 °C) in lysis buffer containing NaHPO4 (50 mM, pH 8), NaCl (300 mM), glycerol (10%), EDTA (1 mM), phenylmethanesulfonyl fluoride (1 mM), leupeptin (10 μg/mL), and a soybean trypsin inhibitor (60 μg/mL). Supernatants after centrifugation at 100,000 × g (60 min, 4 °C) were subjected to benzylthio-sepharose-affinity chromatography in order to purify sEH by elution with 4-fluorochalcone oxide in PBS containing 1 mM DTT and 1 mM EDTA. Dialyzed and concentrated (Millipore Amicon-Ultra-15 centrifugal filter) enzyme solution was assayed for total protein with a Bio-Rad protein detection kit (Bio-Rad Laboratories, Munich, Germany), and the epoxide hydrolase activity was determined by using a fluorescence-based assay as described before.[47] Shortly, sEH was diluted in Tris buffer (25 mM, pH 7) supplemented with BSA (0.1 mg/mL) to an appropriate enzyme concentration and preincubated with test compounds or vehicle (0.1% DMSO) for 10 min at room temperature (RT). The reaction was started by the addition of 50 μM 3-phenyl-cyano(6-methoxy-2-naphthalenyl)methyl ester-2-oxiraneacetic acid (PHOME), a nonfluorescent compound that is enzymatically converted into fluorescent 6-methoxy-naphtaldehyde at RT. After 60 min, reactions were stopped by ZnSO4 (200 mM) and fluorescence was detected (λem 465 nm, λex 330 nm) using a NOVOstar microplate reader (BMG Labtech GmbH, Ortenberg, Germany), and potential fluorescence of test compounds was subtracted from the read-out, if required.

SMILES	IC50 [1] [µM]	melting point	IC50 [2]	remaining activity at 10 µM [2] [%]	activity at 10 µM [1] [%]	activity at 1 µM [1] [%]
O=C(O)c1ccc2c(=O)n(-c3ccccc3)c(SCc3ccccc3Cl)nc2c1 [Compound 10, 2-((2-Chlorobenzyl)thio)-4-oxo-3-phenyl-3,4-dihydroquinazoline-7-carboxylic Acid]	2.1 ± 0.4	277.8 to 279.8 °C			1.3 ± 0.3	
COC(=O)c1cccc(CSc2nc3cc(C(=O)NCC(C)(C)C)ccc3c(=O)[nH]2)c1 [Compound 20, Methyl 3-(((7-(neopentylcarbamoyl)-4-oxo-3,4-dihydroquinazolin-2-yl)thio)methyl)benzoate]		269.6 to 271.4 °C	> 10 µM	94.3		
O=C(O)c1ccc2c(=O)[nH]c(SCc3ccccc3Cl)nc2c1 [Compound 22]	~10	280 °C (dec.)			50.3 ± 15.5	102 ± 5.4
CC(C)(C)CNC(=O)c1ccc2c(=O)[nH]c(SCc3ccccc3Cl)nc2c1 [Compound 34, 2-((2-Chlorobenzyl)thio)-N-neopentyl-4-oxo-3,4-dihydroquinazoline-7-carboxamide]	2.91	238.4 to 239.8 °C	0.66 µM and 0.7 µM		4.5 ± 1.2	84.5 ± 4.5
Cc1ncccc1CSc1nc2cc(C(=O)NCC(C)(C)C)ccc2c(=O)[nH]1 [Compound 44, 2-(((2-Methylpyridin-3-yl)methyl)thio)-N-neopentyl-4-oxo-3,4-dihydroquinazoline-7-carboxamide]		202.3 to 203.8 °C	11 µM and 11.2 µM			
O=C(c1ccc2c(=O)[nH]c(SCc3ccccc3Cl)nc2c1)N1CCNCC1 [Compound 48, 2-((2-Chlorobenzyl)thio)-7-(piperazine-1-carbonyl)quinazolin-4(3H)-one]		159.9 to 162 °C	> 10 µM	105		
O=C(c1ccc2c(=O)[nH]c(SCc3ccccc3Cl)nc2c1)N1CCCCC1 [Compound 49]		175.6 to 177.2 °C	> 10 µM	58.5		
O=C(c1ccc2c(=O)[nH]c(SCc3ccccc3Cl)nc2c1)N1CCOCC1 [Compound 50, 2-((2-Chlorobenzyl)thio)-7-(morpholine-4-carbonyl)quinazolin-4(3H)-one]		198.6 to 200.4 °C	> 10 µM	77.7		

Second part, led by results:

IC50 [1] [µM]	melting point	IC50 [2]	remaining activity at 10 µM [2] [%]	SMILES	activity at 10 µM [1] [%]	activity at 1 µM [1] [%]
	230.8 to 232.7 °C	7.4 ± 2.8 µM		CC(C)CNC(=O)c1ccc2c(=O)n(-c3ccccc3)c(SCc3ccccc3Cl)nc2c1 [Compound 12, N-Isobutyl-4-oxo-3-phenyl-2-((2-chlorobenzyl)thio)-3,4-dihydroquinazoline-7-carboxamide]		
	212.5 to 213.3 °C	~10 µM	58.3	CC(C)NC(=O)c1ccc2c(=O)n(-c3ccccc3)c(SCc3ccc(C(F)(F)F)cc3)nc2c1 [Compound 13, N-Isopropyl-4-oxo-3-phenyl-2-((4-(trifluoromethyl)benzyl)thio)-3,4-dihydroquinazoline-7-carboxamide]		
	214.7 to 216.6 °C	4.5 ± 0.7 µM		CC(C)CNC(=O)c1ccc2c(=O)n(-c3ccccc3)c(SCc3ccc(C(F)(F)F)cc3)nc2c1 [Compound 14, N-Isobutyl-4-oxo-3-phenyl-2-((4-(trifluoromethyl)benzyl)thio)-3,4-dihydroquinazoline-7-carboxamide]		
	250.6 to 252.6 °C	~10 µM	51.9	CC(C)(C)CNC(=O)c1ccc2c(=O)[nH]c(SCc3cccc(C(=O)O)c3)nc2c1 [Compound 21, 3-(((7-(Neopentylcarbamoyl)-4-oxo-3,4-dihydroquinazolin-2-yl)thio)methyl)benzoic Acid]		
> 10	217.1 to 218.4 °C	0.3 ± 0.05 µM		CC(C)(C)CNC(=O)c1ccc2c(=O)[nH]c(SCc3cccc(Cl)c3)nc2c1 [Compound 35, 2-((3-Chlorobenzyl)thio)-N-neopentyl-4-oxo-3,4-dihydroquinazoline-7-carboxamide]	62.1 ± 12.2	93.5 ± 11.4
< 10	220 to 222 °C	1.1 ± 0.1 µM		CC(C)(C)CNC(=O)c1ccc2c(=O)[nH]c(SCc3ccc(Cl)cc3)nc2c1 [Compound 36, 2-((4-Chlorobenzyl)thio)-N-neopentyl-4-oxo-3,4-dihydroquinazoline-7-carboxamide]	29.7 ± 7.2	89.5 ± 8.9
< 10	217.9 to 219.3 °C	0.5 ± 0.05 µM		CC(C)(C)CNC(=O)c1ccc2c(=O)[nH]c(SCc3ccccc3C(F)(F)F)nc2c1 [Compound 37, 2-((2-(Trifluoromethyl)benzyl)thio)-N-Neopentyl-4-oxo-3,4-dihydroquinazoline-7-carboxamide]	20.9 ± 12.1	97.6 ± 4
	210.3 to 212.2 °C	1.3 ± 0.1 µM		CC(C)(C)CNC(=O)c1ccc2c(=O)[nH]c(SCc3ccccc3F)nc2c1 [Compound 39, 2-((2-Fluorobenzyl)thio)-N-neopentyl-4-oxo-3,4-dihydroquinazoline-7-carboxamide]		
	190.3 to 192.2 °C	2.4 ± 0.3 µM		CC(C)(C)CNC(=O)c1ccc2c(=O)[nH]c(SCc3ccccc3C#N)nc2c1 [Compound 40, 2-((2-Cyanobenzyl)thio)-N-neopentyl-4-oxo-3,4-dihydroquinazoline-7-carboxamide]		
	207.4 to 209.4 °C	1.2 ± 0.1 µM		Cc1ccccc1CSc1nc2cc(C(=O)NCC(C)(C)C)ccc2c(=O)[nH]1 [Compound 41, 2-((2-Methylbenzyl)thio)-N-neopentyl-4-oxo-3,4-dihydroquinazoline-7-carboxamide]		
	230.2 to 232.1 °C	3.9 ± 2 µM		COc1ccccc1CSc1nc2cc(C(=O)NCC(C)(C)C)ccc2c(=O)[nH]1 [Compound 42, 2-((2-Methoxybenzyl)thio)-N-neopentyl-4-oxo-3,4-dihydroquinazoline-7-carboxamide]		
	220.9 to 221.9 °C	0.4 ± 0.1 µM		CC(C)(C)CNC(=O)c1ccc2c(=O)[nH]c(SCc3ccccc3OC(F)(F)F)nc2c1 [Compound 43, 2-((2-(Trifluoromethoxy)benzyl)thio)-N-neopentyl-4-oxo-3,4-dihydroquinazoline-7-carboxamide]		
	262.8 to 264.6 °C	1.5 ± 0.2 µM		CC(C)CNC(=O)c1ccc2c(=O)[nH]c(SCc3ccc(C(F)(F)F)cc3)nc2c1 [Compound 46, 2-((4-(Trifluoromethyl)benzyl)thio)-N-isobutyl-4-oxo-3,4-dihydroquinazoline-7-carboxamide]		
